The target in data set [1] is T1, PERK (Homo sapiens, UniProt Q9NZJ5).
T1 sequence (Q9NZJ5 30-1116): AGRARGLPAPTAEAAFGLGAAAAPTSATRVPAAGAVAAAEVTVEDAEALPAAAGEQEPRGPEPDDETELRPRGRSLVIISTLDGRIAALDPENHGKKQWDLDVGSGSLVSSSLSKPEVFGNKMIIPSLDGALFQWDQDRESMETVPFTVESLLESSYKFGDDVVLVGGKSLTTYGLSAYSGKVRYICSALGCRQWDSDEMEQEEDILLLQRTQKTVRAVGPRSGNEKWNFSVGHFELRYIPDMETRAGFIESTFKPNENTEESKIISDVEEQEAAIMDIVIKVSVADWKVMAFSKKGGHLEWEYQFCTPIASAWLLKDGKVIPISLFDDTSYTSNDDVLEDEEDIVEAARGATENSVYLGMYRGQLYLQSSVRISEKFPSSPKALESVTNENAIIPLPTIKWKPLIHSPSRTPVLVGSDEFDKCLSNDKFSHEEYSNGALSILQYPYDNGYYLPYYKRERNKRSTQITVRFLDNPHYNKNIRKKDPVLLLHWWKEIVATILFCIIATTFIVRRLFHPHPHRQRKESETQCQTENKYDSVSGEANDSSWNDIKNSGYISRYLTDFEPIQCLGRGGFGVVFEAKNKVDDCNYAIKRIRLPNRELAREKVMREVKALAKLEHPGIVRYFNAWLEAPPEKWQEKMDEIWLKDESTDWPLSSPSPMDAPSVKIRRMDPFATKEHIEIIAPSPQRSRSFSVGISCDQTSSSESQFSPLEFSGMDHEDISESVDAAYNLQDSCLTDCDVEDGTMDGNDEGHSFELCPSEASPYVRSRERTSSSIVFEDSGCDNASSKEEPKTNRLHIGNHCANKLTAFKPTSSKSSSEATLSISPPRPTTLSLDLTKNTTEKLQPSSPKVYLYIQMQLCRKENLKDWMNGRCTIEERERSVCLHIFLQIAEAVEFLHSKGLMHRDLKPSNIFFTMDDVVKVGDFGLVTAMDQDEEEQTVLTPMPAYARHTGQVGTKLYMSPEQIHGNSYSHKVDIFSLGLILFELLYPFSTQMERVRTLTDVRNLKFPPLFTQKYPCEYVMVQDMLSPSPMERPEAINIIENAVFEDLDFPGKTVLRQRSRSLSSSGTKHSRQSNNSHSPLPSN
Kind of data set: In-vitro PERK enzyme inhibition assay (LanthaScreen, KIN_PERK). Details: GST (N); purchased Invitrogen PV5106. The following applies: recombinant GST-PERK, GFP-eIF2 alpha substrate, 5 μM ATP, 60 minutes; for IC50: read-out: KIN_PERK pIC50 (converted). In kind it is biochemical. Here is the method: Pharmacology i) In-Vitro PERK Enzyme Inhibition Assay (KIN_PERK pIC50)
The compounds of the invention were tested for inhibitory activity against PERK in an enzyme inhibition assay.
A biochemical PERK kinase assay using LanthaScreen® technology from Invitrogen using recombinant GST-PERK (Invitrogen PV5106), GFP-eIF2 alpha (full length) as substrate (Invitrogen PV4809) and the Terbium-labeled antibody (Tb-anti-peIF2alpha (pSer52); Invitrogen PV4816) as detection reagent, was performed essentially as described by the manufacturer, using following specific parameters: […]

Data set [2] has as its target T1, PERK. Kind of data set: Cell-based PERK inhibition assay (TR-FRET, phosphorylation of GFP-eIF2 alpha in HEK293 cells, tunicamycin). The following applies: HEK293 (LanthaScreen eIF2α GripTite) cells, compounds 60 min, tunicamycin 2 microg/ml 120 min; for IC50: read-out: P-eIF2alpha_Lantha_cell pIC50 (converted). Here is the method:
A cell-based TR-FRET assay to measure inhibition of phosphorylation of GFP-eIF2 alpha expressed in HEK293 cells by compounds was set up as follows:
LanthaScreen® eIF2α GripTite cells (Invitrogen M4387) were plated and incubated for 16-20 h at 37° C. and 5% CO2, incubated with test compounds for 60 min, and then stimulated with tunicamycin (2 microg/ml) for 120 min. Culture medium was aspirated from the wells and, the cells were lysed in LanthaScreen® Cellular Assay Lysis Buffer (Invitrogen; PV5598), supplemented with protease inhibitor cocktail (Sigma P8340, 1/1000 dilution) and phosphatase inhibitor cocktail (Sigma P0044, 1/1000 dilution), including 2 nM terbium-labeled eIF2a pSer52 antibody (Invitrogen; PV4816).

Molecules are shown by their SMILES.

`COc1cc2ncnc(Nc3ccc4c(c3F)CCN4C(=O)Cc3cc(F)ccc3F)c2cc1OC` [Compound 3]: the melting point was determined as 210 °C. Besides, the IC50 at PERK [1] is 0.398 nM. For the same molecule, the IC50 on PERK [2] is 50.1 nM.

Molecule `COc1cc2ncnc(Nc3ccc4c(c3)CCN4C(=O)Cc3c(C)n(C)c4ccccc34)c2cc1OC` [Compound 5] showed a melting point of 168 °C. Further, at PERK [1], the IC50 is 1.26 nM. Also, the IC50 at PERK [2] was 63.1 nM.

In the case of `COc1cc2ncnc(Nc3ccc4c(c3)CCN4C(=O)Cc3c(Br)cnn3C)c2cc1OC` [Compound 11, 2-(4-bromo-2-methyl-pyrazol-3-yl)-1-[5-[(6,7-dimethoxyquinazolin-4-yl)amino]indolin-1-yl]ethanone], the melting point worked out at 170 °C. Moreover, the IC50 on PERK [1] is 7.94 nM. For the same molecule, at PERK [2], the IC50 is 251 nM.

The molecule `COCCOc1cc2ncnc(Nc3ccc4c(c3)CCN4C(=O)Cc3c(C)[nH]c4ccccc34)c2cc1OCCOC` [Compound 14] displayed a melting point of 186 °C. Also, at PERK [2], the IC50 was 398 nM.

The molecule `COc1cc2ncnc(Nc3ccc4c(c3)CCN4C(=O)Cn3ccc4ccccc43)c2cc1OC` [Compound 15] came in with a melting point of 176 °C. In addition, at PERK [1], the “KIN_PERK pIC50” value was determined as 8.2. Further, the IC50 on PERK [2] is approximately 302 nM.

Regarding `COc1cc2ncnc(Nc3ccc4c(c3)CCN4C(=O)Cc3csc4ccccc34)c2cc1OC` [Compound 16], the melting point is 161 °C. For the same molecule, at PERK [1], the IC50 was 5.01 nM. Besides, on PERK [2], the IC50 was 501 nM.

In turn, `COc1cc2ncnc(Nc3ccc4c(c3)CCN4C(=O)Cc3nn(C)c4ccccc34)c2cc1OC` [Compound 17] yielded a melting point of 158 °C. The IC50 at PERK [1] was 20 nM. Further, on PERK [2], the IC50 is 794 nM.

As for `COc1cc2ncnc(Nc3ccc4c(c3)CCN4C(=O)Cc3cccs3)c2cc1OC` [Compound 20], the melting point worked out at 219 °C. The IC50 on PERK [1] was 31.6 nM. Besides, at PERK [2], the IC50 was 1260 nM.

Take `COc1cc2ncnc(Nc3ccc4c(c3)CCN4C(=O)Cc3ccn(C)n3)c2cc1OC` [Compound 28]: the melting point came to 199 °C. Besides, the “KIN_PERK pIC50” value at PERK [1] was 6.6. Also, the “P-eIF2alpha_Lantha_cell pIC50” value on PERK [2] stood at 5.1.

`COc1cc2ncnc(Nc3ccc4c(c3)CCN4C(=O)Cc3coc4ccccc34)c2cc1OC` [Compound 30] had a melting point of 165 °C. Further, the “KIN_PERK pIC50” value at PERK [1] is recorded as 8.0. The IC50 at PERK [2] is more than 30200 nM.

`COc1cc2ncnc(Nc3ccc4c(c3F)CCN4C(=O)Cc3c(C)[nH]c4ccccc34)c2cc1OC` [Compound 39, 1-[5-[(6,7-dimethoxyquinazolin-4-yl)amino]-4-fluoro-indolin-1-yl]-2-(2-methyl-1H-indol-3-yl)ethanone]: the melting point came out at 174 °C. In addition, the “KIN_PERK pIC50” value at PERK [1] is given as 9.0. The “P-eIF2alpha_Lantha_cell pIC50” value at PERK [2] is 7.9.

Molecule `COc1cc2ncnc(Nc3ccc4c(c3)CCN4C(=O)Cc3c[nH]c4ccccc34)c2cc1OC` [Compound 40] had a melting point of 180 °C. Also, on PERK [1], the IC50 was 12.6 nM. Also, at PERK [2], the IC50 is 631 nM.

In turn, `COc1cc2ncnc(Nc3ccc4c(c3)CCN4C(=O)Cc3cccc(C)n3)c2cc1OC` [Compound 41] displayed a melting point of 248 °C. For the same molecule, at PERK [2], the IC50 is 794 nM.

`COc1cc2ncnc(Nc3ccc4c(c3)CCN4C(=O)Cc3cc(F)ccc3F)c2cc1OC` [Compound 42] displayed a melting point of more than 260 °C. Also, on PERK [1], the IC50 is 6.31 nM. For the same molecule, on PERK [2], the IC50 is 631 nM.

Molecule `COc1cc2ncnc(Nc3ccc4c(c3)CCN4C(=O)Cn3ccnc3)c2cc1OC` [Compound 53] showed a melting point of 174 °C. Besides, the IC50 on PERK [1] was more than 10000 nM. Further, the IC50 on PERK [2] is more than 10000 nM.

For the origin of these results see patent US9688662B2, “N-(2,3-dihydro-1H-pyrrolo[2,3-b]pyridin-5-yl)-4-quinazolinamine and N-(2,3-dihydro-1H-indol-5-yl)-4-quinazolinamine derivatives as perk inhibitors” (Janssen Pharmaceutica NV, priority 2013, dated 2017).
